The experiment concerns the target HEK293 cells with stable expression of the GRIN1 gene and tetracycline-inducible expression of the GRIN2B gene (NMDA receptor, NR2B) (Homo sapiens, UniProt Q13224). The experiment in a line: Fluo-8 Ca2+ flux assay: reversal of Ro 25-6981-mediated suppression of the Ca2+ response to co-agonist (glutamate/glycine). Further: test concentration or dose not given here. It is filed as cell-based. Particulars: reversal of the Ro 25-6981 suppression of the Ca2+ response to co-agonist (glutamate/glycine).
Chain of HEK293 cells with stable expression of the GRIN1 gene and tetracycline-inducible expression of the GRIN2B gene (NMDA receptor, NR2B) (Q13224 27-1484, other chains not shown): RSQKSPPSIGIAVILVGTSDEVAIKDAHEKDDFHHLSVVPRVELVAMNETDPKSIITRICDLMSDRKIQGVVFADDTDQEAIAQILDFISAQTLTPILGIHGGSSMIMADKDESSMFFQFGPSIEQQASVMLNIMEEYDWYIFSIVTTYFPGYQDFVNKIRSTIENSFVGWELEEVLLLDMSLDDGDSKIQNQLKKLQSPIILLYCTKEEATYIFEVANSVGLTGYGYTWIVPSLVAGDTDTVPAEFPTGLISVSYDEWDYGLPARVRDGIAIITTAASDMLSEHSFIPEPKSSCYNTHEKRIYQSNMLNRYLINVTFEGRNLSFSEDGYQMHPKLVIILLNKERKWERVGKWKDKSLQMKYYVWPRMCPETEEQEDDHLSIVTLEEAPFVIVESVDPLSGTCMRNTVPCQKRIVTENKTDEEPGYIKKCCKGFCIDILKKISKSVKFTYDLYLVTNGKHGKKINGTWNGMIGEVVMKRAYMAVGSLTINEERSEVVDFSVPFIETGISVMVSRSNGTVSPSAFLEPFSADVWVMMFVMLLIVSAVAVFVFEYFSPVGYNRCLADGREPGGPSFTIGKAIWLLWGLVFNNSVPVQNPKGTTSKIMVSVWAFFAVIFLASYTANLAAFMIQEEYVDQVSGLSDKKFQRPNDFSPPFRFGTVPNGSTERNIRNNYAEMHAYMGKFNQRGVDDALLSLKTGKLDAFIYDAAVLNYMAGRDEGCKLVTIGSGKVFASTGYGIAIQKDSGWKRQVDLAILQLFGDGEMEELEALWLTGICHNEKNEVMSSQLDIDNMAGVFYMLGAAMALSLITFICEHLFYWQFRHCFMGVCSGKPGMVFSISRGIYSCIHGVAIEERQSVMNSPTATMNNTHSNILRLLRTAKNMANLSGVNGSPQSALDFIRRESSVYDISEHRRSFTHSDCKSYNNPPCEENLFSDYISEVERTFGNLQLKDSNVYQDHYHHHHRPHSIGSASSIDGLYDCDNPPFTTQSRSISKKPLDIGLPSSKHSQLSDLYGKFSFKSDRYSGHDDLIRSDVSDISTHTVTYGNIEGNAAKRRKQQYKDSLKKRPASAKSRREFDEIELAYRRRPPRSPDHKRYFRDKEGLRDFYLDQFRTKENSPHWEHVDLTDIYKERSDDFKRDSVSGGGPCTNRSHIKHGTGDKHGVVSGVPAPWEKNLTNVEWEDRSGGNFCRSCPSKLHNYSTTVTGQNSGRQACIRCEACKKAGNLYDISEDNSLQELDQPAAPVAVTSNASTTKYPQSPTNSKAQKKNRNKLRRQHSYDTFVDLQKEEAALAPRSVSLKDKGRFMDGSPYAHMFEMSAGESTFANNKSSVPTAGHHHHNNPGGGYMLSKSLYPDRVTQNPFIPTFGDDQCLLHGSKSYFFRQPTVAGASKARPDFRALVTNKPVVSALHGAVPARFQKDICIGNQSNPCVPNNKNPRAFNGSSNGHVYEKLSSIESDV
Regarding `CC1(O)CN(C(=O)Cn2ccc3scc(-c4ccc(F)c(Cl)c4)c3c2=O)C1` [Example 58, 3-(3-chloro-4-fluorophenyl)-5-(2-(3-hydroxy-3-methylazetidin-1-yl)-2-oxoethyl)thieno[3,2-c]pyridin-4(5H)-one], the “Response Recovered (%)” value worked out at 10%.

As for `CC1CN(C(=O)Cn2ccc3scc(-c4ccc(Cl)c(Cl)c4)c3c2=O)C1` [Example 59, 3-(3,4-dichlorophenyl)-5-(2-(3-methylazetidin-1-yl)-2-oxoethyl)thieno[3,2-c]pyridin-4(5H)-one], the “Response Recovered (%)” value is on record as 110%.

Turning to `CC1CN(C(=O)Cn2ccc3scc(-c4ccc(F)c(C(F)(F)F)c4)c3c2=O)C1` [Example 60, 3-(4-fluoro-3-(trifluoromethyl)phen-yl)-5-(2-(3-methylazetidin-1-yl)-2-oxoethyl)thieno[3,2-c]pyridin-4(5H)-one], the “Response Recovered (%)” value is 76%.

As to `CC1(O)CN(C(=O)Cn2ccc3scc(-c4ccc(Cl)c(Cl)c4)c3c2=O)C1` [Example 61, 3-(3,4-dichlorophenyl)-5-(2-(3-hydroxy-3-methylazetidin-1-yl)-2-oxoethyl)thieno[3,2-c]pyridin-4(5H)-one], the “Response Recovered (%)” value is 16%.

As for `COC1(C)CN(C(=O)Cn2ccc3scc(-c4ccc(F)c(Cl)c4)c3c2=O)C1` [Example 62, 3-(3-chloro-4-fluorophenyl)-5-(2-(3-methoxy-3-methylazetidin-1-yl)-2-oxoethyl)thieno[3,2-c]pyridin-4(5H)-one], the “Response Recovered (%)” value was determined as 11%.

As to `COC1(C)CN(C(=O)Cn2ccc3scc(-c4ccc(Cl)c(Cl)c4)c3c2=O)C1` [Example 63, 3-(3,4-dichlorophenyl)-5-(2-(3-methoxy-3-methylazetidin-1-yl)-2-oxoethyl)thieno[3,2-c]pyridin-4(5H)-one], the “Response Recovered (%)” value is given as 16%.

For the compound `COC1(C)CN(C(=O)Cn2ccc3scc(-c4ccc(F)c(C(F)(F)F)c4)c3c2=O)C1` [Example 64, 3-(4-fluoro-3-(trifluoromethyl)phen-yl)-5-(2-(3-methoxy-3-methylazetidin-1-yl)-2-oxoethyl)thieno[3,2-c]pyridin-4(5H)-one], the “Response Recovered (%)” value came out at 22%.

Consider `O=C(Cn1ccc2scc(-c3ccc(F)c(Cl)c3)c2c1=O)N1CC2C(C1)C2(F)F` (stereo not shown) [Example 65, 3-(3-chloro-4-fluorophenyl)-5-(2-(6,6-difluoro-3-azabicyclo[3.1.0]hex-an-3-yl)-2-oxoethyl)thieno[3,2-c]pyridin-4(5H)-one], for which the “Response Recovered (%)” value was determined as 13%.

As to `O=C(Cn1ccc2scc(-c3ccc(Cl)c(Cl)c3)c2c1=O)N1CC2C(C1)C2(F)F` (stereo not shown) [Example 66, 3-(3,4-dichlorophenyl)-5-(2-(6,6-difluoro-3-azabicyclo[3.1.0]hex-an-3-yl)-2-oxoethyl)thieno[3,2-c]pyridin-4(5H)-one], the “Response Recovered (%)” value amounted to 26%.

As to `O=C(Cn1ccc2scc(-c3ccc(F)c(Cl)c3)c2c1=O)N1CC2(COC2)C1` [Example 67, 3-(3-chloro-4-fluroophenyl)-5-(2-oxo-2-(2-oxa-6-azaspiro[3.3]heptan-6-yl)ethyl)thieno[3,2-c]pyridin-4(5H)-one], the “Response Recovered (%)” value came out at 4.4%.

As to `O=C(Cn1ccc2scc(-c3ccc(Cl)c(Cl)c3)c2c1=O)N1CC2(COC2)C1` [Example 68, 3-(3,4-dichlorophenyl)-5-(2-oxo-2-(2-oxa-6-azaspiro[3.3]heptan-6-yl)ethyl)thieno[3,2-c]pyridin-4(5H)-one], the “Response Recovered (%)” value is 13%.

Turning to `O=C(Cn1ccc2scc(-c3ccc(F)c(C(F)(F)F)c3)c2c1=O)N1CC2(COC2)C1` [Example 69, 3-(4-fluoro-3-(trifluoromethyl)phen-yl)-5-(2-oxo-2-(2-oxa-6-azaspiro[3.3]heptan-6-yl)ethyl)thieno[3,2-c]pyridin-4(5H)-one], the “Response Recovered (%)” value is 16%.

Turning to `O=C(Cn1ccc2scc(-c3cnc(Cl)c(Cl)c3)c2c1=O)N1CC(F)(C2CC2)C1` [Example 70, 5-(2-(3-cyclopropyl-3-fluoroazetidin-1-yl)-2-oxoethyl)-3-(5,6-dichloropyridin-3-yl)thieno[3,2-c]pyridin-4(5H)-one], the “Response Recovered (%)” value is reported as 64%.

`O=C(Cn1ccc2scc(-c3ccc(F)c(Cl)c3)c2c1=O)N1CC2(CC2)C1` [Example 71, 3-(3-chloro-4-fluorophenyl)-5-(2-oxo-2-(5-azaspiro[2.3]hexan-5-yl)ethyl)thieno[3,2-c]pyridin-4(5H)-one]: the “Response Recovered (%)” value worked out at 46%.

For the compound `O=C(Cn1ccc2scc(-c3ccc(F)c(C(F)(F)F)c3)c2c1=O)N1CC2C(C1)C2(F)F` (stereo not shown) [Example 72, 5-(2-(6,6-difluoro-3-azabicyclo[3.1.0]hex-an-3-yl)-2-oxoethyl)-3-(4-fluoro-3-(trifluoromethyl)phen-yl)thieno[3,2-c]pyridin-4(5H)-one], the “Response Recovered (%)” value is recorded as 37%.

For `CC1(NC(=O)OC(C)(C)C)CN(C(=O)Cn2ccc3scc(-c4ccc(Cl)c(Cl)c4)c3c2=O)C1` [Example 73, tert-butyl (1-(2-(3-(3,4-dichlorophenyl)-4-oxothieno[3,2-c]pyridin-5(4H)-yl)acetyl)-3-methylazetidin-3-yl)carbamate], the “Response Recovered (%)” value is on record as 9.8%.

For `CC1(NC(=O)OC(C)(C)C)CN(C(=O)Cn2ccc3scc(-c4ccc(F)c(Cl)c4)c3c2=O)C1` [Example 74, tert-butyl (1-(2-(3-(3-chloro-4-fluorophenyl)-4-oxothieno[3,2-c]pyridin-5(4H)-yl)acetyl)-3-methylazetidin-3-yl)carbamate], the “Response Recovered (%)” value is 4.7%.

For the compound `CCC1(F)CN(C(=O)Cn2ccc3scc(-c4cnc(Cl)c(Cl)c4)c3c2=O)C1` [Example 75, 3-(5,6-dichloropyridin-3-yl)-5-(2-(3-ethyl-3-fluoroazetidin-1-yl)-2-oxoethyl)thieno[3,2-c]pyridin-4(5H)-one], the “Response Recovered (%)” value is given as 78%.

With `CC1(F)CN(C(=O)Cn2ccc3scc(-c4cnc(Cl)c(Cl)c4)c3c2=O)C1` [Example 76, 3-(5,6-dichloropyridin-3-yl)-5-(2-(3-fluoro-3-methylazetidin-1-yl)-2-oxoethyl)thieno[3,2-c]pyridin-4(5H)-one], the “Response Recovered (%)” value is reported as 77%.

Take `CC1(NC(=O)OC(C)(C)C)CN(C(=O)Cn2ccc3scc(-c4ccc(F)c(C(F)(F)F)c4)c3c2=O)C1` [Example 77, tert-butyl (1-(2-(3-(4-fluoro-3-(trifluoromethyl)phen-yl)-4-oxothieno[3,2-c]pyridin-5(4H)-yl)acetyl)-3-methylazetidin-3-yl)carbamate]: the “Response Recovered (%)” value is recorded as −6.4%.

Consider `O=C(Cn1ccc2scc(-c3ccc(Cl)c(Cl)c3)c2c1=O)N1CC2(CC2)C1` [Example 78, 3-(3,4-dichlorophenyl)-5-(2-oxo-2-(5-azaspiro[2.3]hexan-5-yl)ethyl)thieno[3,2-c]pyridin-4(5H)-one], for which the “Response Recovered (%)” value was 53%.

Turning to `CC(C)(C)OC(=O)N1CCC12CN(C(=O)Cn1ccc3scc(-c4ccc(F)c(Cl)c4)c3c1=O)C2` [Example 79, tert-butyl 6-(2-(3-(3-chloro-4-fluorophenyl)-4-oxothieno[3,2-c]pyridin-5(4H)-yl)acetyl)-1,6-diazaspiro[3.3]heptane-1-carboxylate], the “Response Recovered (%)” value was 18%.

(Values after patent US12162890B2 (Novartis AG, priority 2015, dated 2024).)
